# US20200361895A1, “NOVEL SULFONAMIDE CARBOXAMIDE COMPOUNDS” (Inflazome Limited, priority 2017, published 2020)
# Counter-ions that a name gives are not always drawn.
# Target: NLRP3 (Homo sapiens, UniProt Q96P20)
# Test: THP-1 cells pyroptosis assay (LPS + nigericin, resazurin readout; THP IC50)
# Format: cell-based
# Design: Seed THP-1 cells (25,000 cells/well) containing 1.0 μg/ml LPS in 40 μl of RPMI medium; host or cells: THP-1 cells
# Procedure, shortened: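 Human THP-1 cells, 25,000/well in serum-free RPMI with 1 μg/ml LPS, treated 3 hrs at 37° C with compound (8-point half-log, 10 μM top, 0.1% DMSO), then 5 μM nigericin 1 hr. Viability by 100 μM resazurin fluorescence after 1-2 hrs; IC50 by 4-parameter fit.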
# NLRP3, sequence (Q96P20 whole entry): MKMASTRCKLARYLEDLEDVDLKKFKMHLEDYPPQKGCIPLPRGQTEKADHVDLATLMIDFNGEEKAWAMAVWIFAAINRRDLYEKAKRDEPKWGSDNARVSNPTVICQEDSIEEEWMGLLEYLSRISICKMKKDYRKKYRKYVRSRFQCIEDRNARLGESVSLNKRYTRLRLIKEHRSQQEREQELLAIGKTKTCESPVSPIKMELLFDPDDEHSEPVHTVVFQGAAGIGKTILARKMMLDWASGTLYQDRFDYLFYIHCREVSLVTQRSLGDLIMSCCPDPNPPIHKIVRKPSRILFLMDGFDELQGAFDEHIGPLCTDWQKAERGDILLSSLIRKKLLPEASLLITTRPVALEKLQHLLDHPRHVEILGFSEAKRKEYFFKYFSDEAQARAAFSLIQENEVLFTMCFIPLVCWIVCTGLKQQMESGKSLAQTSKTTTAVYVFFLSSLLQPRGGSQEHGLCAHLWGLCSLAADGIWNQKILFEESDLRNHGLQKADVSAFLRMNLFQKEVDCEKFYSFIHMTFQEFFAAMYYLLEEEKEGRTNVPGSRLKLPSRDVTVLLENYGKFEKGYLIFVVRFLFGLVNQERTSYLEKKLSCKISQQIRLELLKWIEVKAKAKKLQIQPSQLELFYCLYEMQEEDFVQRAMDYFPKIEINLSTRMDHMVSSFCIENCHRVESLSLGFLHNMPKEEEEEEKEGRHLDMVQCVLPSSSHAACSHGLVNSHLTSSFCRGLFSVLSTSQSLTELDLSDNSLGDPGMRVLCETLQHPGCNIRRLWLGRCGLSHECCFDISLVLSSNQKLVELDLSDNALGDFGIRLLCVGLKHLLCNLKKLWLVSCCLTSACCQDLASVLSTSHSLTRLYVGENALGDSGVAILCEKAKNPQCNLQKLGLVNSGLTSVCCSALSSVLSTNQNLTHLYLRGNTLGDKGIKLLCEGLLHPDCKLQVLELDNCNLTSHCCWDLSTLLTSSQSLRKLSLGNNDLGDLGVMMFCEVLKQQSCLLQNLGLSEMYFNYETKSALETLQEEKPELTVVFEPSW
row,IC50,Structure (SMILES)
1,≤ 5 µM,"CC(C)c1cccc(-n2ccnc2)c1NC(=O)NS(=O)(=O)c1ccn(C(C)C)n1 [Example 204, N-((2-(1H-Imidazol-1-yl)-6-isopropylphenyl)carbamoyl)-1-isopropyl-1H-pyrazole-3-sulfonamide]"
2,≤ 5 µM,"CC(C)n1ccc(S(=O)(=O)NC(=O)Nc2c(-c3cccnc3)cc(F)cc2-c2cccnc2)n1 [Example 208, N-((4-Fluoro-2,6-di(pyridin-3-yl)phenyl)carbamoyl)-1-isopropyl-1H-pyrazole-3-sulfonamide]"
3,≤ 5 µM,"COc1cc(-c2ccc3ncccc3c2NC(=O)NS(=O)(=O)c2ccn(C(C)C)n2)ccn1 [Example 212, 1-Isopropyl-N-((6-(2-methoxypyridin-4-yl)quinolin-5-yl)carbamoyl)-1H-pyrazole-3-sulfonamide]"
4,≤ 10 µM,"COc1cc(-c2ccc3ccncc3c2NC(=O)NS(=O)(=O)c2ccn(C(C)C)n2)ccn1 [Example 217, 1-Isopropyl-N-((7-(2-methoxypyridin-4-yl)isoquinolin-8-yl)carbamoyl)-1H-pyrazole-3-sulfonamide]"
5,≤ 10 µM,"Cc1cc(-c2ccc3c(c2NC(=O)NS(=O)(=O)c2ccn(C(C)C)n2)CCC3)n(C)n1 [Example 220, N-((5-(1,3-Dimethyl-1H-pyrazol-5-yl)-2,3-dihydro-1H-inden-4-yl)carbamoyl)-1-isopropyl-1H-pyrazole-3-sulfonamide]"
6,≤ 5 µM,"COc1cc(-c2ccc3c(c2NC(=O)NS(=O)(=O)c2ccn(C(C)C)n2)CCC3)cc(C)n1 [Example 238, 1-Isopropyl-N-((5-(2-methoxy-6-methylpyridin-4-yl)-2,3-dihydro-1H-inden-4-yl)carbamoyl)-1H-pyrazole-3-sulfonamide, sodium salt]"
7,≤ 5 µM,"CC(C)n1ccc(S(=O)(=O)NC(=O)Nc2c(-c3cncn3C)ccc3c2CCC3)n1 [Example 240, 1-Isopropyl-N-((5-(1-methyl-1H-imidazol-5-yl)-2,3-dihydro-1H-inden-4-yl)carbamoyl)-1H-pyrazole-3-sulfonamide]"
8,≤ 5 µM,"CC(C)n1ccc(S(=O)(=O)NC(=O)Nc2c(-c3cncnc3)ccc3c2CCC3)n1 [Example 241, 1-Isopropyl-N-((5-(pyrimidin-5-yl)-2,3-dihydro-1H-inden-4-yl)carbamoyl)-1H-pyrazole-3-sulfonamide]"
9,≤ 5 µM,"O=C(Nc1c(C2CCOCC2)ccc2c1CCC2)NS(=O)(=O)c1ccn(C2CC2)n1 [Example 254, 1-Cyclopropyl-N-((5-(tetrahydro-2H-pyran-4-yl)-2,3-dihydro-1H-inden-4-yl)carbamoyl)-1H-pyrazole-3-sulfonamide]"
10,≤ 1 µM,"COc1cc(-c2ccc3c(c2NC(=O)NS(=O)(=O)OC(C)C)CCC3)ccn1 [Example 256, Isopropyl (5-(2-methoxypyridin-4-yl)-2,3-dihydro-1H-inden-4-yl)carbamoylsulfamate, sodium salt]"
11,≤ 5 µM,"Cn1cc(-c2ccc3c(c2NC(=O)NS(=O)(=O)c2ccn(C4CC4)n2)CCC3)ccc1=O [Example 268, 1-Cyclopropyl-N-((5-(1-methyl-6-oxo-1,6-dihydropyridin-3-yl)-2,3-dihydro-1H-inden-4-yl)carbamoyl)-1H-pyrazole-3-sulfonamide]"
12,≤ 5 µM,"Cn1ccc(-c2ccc3c(c2NC(=O)NS(=O)(=O)c2ccn(C4CC4)n2)CCC3)cc1=O [Example 272, 1-Cyclopropyl-N-((5-(1-methyl-2-oxo-1,2-dihydropyridin-4-yl)-2,3-dihydro-1H-inden-4-yl)carbamoyl)-1H-pyrazole-3-sulfonamide, sodium salt]"
13,≤ 5 µM,"O=C(Nc1c2c(nn1-c1ccncc1)CCC2)NS(=O)(=O)c1ccn(C2CC2)n1 [Example 273, 1-Cyclopropyl-N-((2-(pyridin-4-yl)-2,4,5,6-tetrahydrocyclopenta[c]pyrazol-3-yl)carbamoyl)-1H-pyrazole-3-sulfonamide]"
14,≤ 5 µM,"CC(C)n1ccc(S(=O)(=O)NC(=O)Nc2c(-c3ccnc4c3CCO4)ccc3c2CCC3)n1 [Example 283, N-((5-(2,3-Dihydrofuro[2,3-b]pyridin-4-yl)-2,3-dihydro-1H-inden-4-yl)carbamoyl)-1-isopropyl-1H-pyrazole-3-sulfonamide]"
